# Measured values from PMC4145329 (Marine Drugs, 2014).
# What was measured:
# SW480 cells = test: MTT anti-proliferative assay, SW480; format: cell-based, human; conditions: for Cytotoxicity IC50, SW480: human, 72 h
# Protocol: (§1) All of the cells were incubated at 37 °C in a humidified atmosphere composed of 95% air and 5% CO2. The cell viability was determined by measuring the ability of cells to transform MTT (Genview, Houston, TX, USA) to a purple formazan dye. The cells were seeded in 96-well tissue culture plates at 2.5 × 10^3 cells/well for 24 h. […] After incubation, 20 μL/well of MTT solution (5 mg/mL phosphate buffered saline) were added and incubated for 5 h. The medium was aspirated and replaced with 100 μL/well of DMSO to dissolve the formazan salt. The color intensity of the formazan solution, which reflects the cell growth condition, was measured at 570 nm using a microplate spectrophotometer (SpectroAma™ 250, Winooski, VT, USA).
# [1] = MTT anti-proliferative assay, L02; format: cell-based; conditions: human
# Protocol: as §1
# HepG2 cells [2] = test: MTT anti-proliferative assay, HepG2; format: cell-based, human; conditions: for Cytotoxicity IC50, HepG2: human, 72 h
# Protocol: as §1
# MCF-7 cells = test: MTT anti-proliferative assay, MCF-7; format: cell-based, human; conditions: for Cytotoxicity IC50, MCF-7: human, 72 h
# Protocol: as §1
# U87 cells = test: MTT anti-proliferative assay, U87; format: cell-based, human; conditions: for Cytotoxicity IC50, U87: human, 72 h
# Protocol: as §1
# HepG2 cells [3] = test: Hoechst33342 staining, nuclear damage observation; format: cell-based, human; conditions: HepG2, 3, 6, 12 μg/mL, 72 h
# Protocol: Apoptotic nuclear morphology was visualized by the Hoechsst33342 staining technique. Cells were fixed with 3.7% of paraformaldehyde for 10 min at room temperature and washed three times with PBS. Thus, paraformaldehyde-fixed cells were stained using Hoechsst33342 (10 μg/mL) in the dark for 10 min. After washing three times with PBS, cells were visualized using fluorescence microscope.
# PARP = test: Western blot, cleaved PARP in HepG2; format: cell-based, human; conditions: HepG2, 3, 6, 12, and 24 μg/mL, 72 h
# Protocol: (§2) The protein was extracted with RIPA buffer and quantified using the Bradford method. Equal amounts of protein were loaded into each well. After SDS-PAGE, the proteins were transferred to a polyvinylidene difluoride (PVDF) membrane. The membrane was blocked with 5% non-fat milk for 1 h and incubated with a primary antibody (Cell Signaling Technology, Danvers, MA, USA, Rabbit monoclonal antibody, 1:1000) at 4 °C overnight. After washing two times with TBST (Tris-buffered saline with 0.1% Tween-20) buffer, the membrane was incubated with a secondary antibody (goat-anti-rabbit horseradish peroxidase (HRP)-conjugated 1:15,000) at room temperature for 1 h. The membranes were washed three times (8 min each time) with TBST. The intensity of the specific immunoreactive bands was detected through enhanced chemiluminescence (ECL).
# caspase-9 = test: Western blot, cleaved caspase-9 in HepG2; format: cell-based, human; conditions: HepG2, 3, 6, 12, and 24 μg/mL, 72 h
# Protocol: as §2
# HepG2 cells [4] = test: Annexin V-FITC/PI flow cytometry apoptosis analysis; format: cell-based, human; conditions: 72 h; for percentage of early apoptotic cells: mean; for Q4 (lower right, early apoptotic cells), representative dot plot: Figure 3 picture
# Protocol: The apoptotic cells were quantified using an Annexin V-FITC (Sigma-Aldrich, USA) Apoptosis Detection Kit according to the manufacturer’s instructions. […] Five μL of Annexin V-fluorescein isothiocyanate (FITC) and 5 μL of PI were added. The analysis was performed with a FACScan flow cytometer (Coulter Epics Elite, Miami, FL, USA). The cells in the FITC-positive and PI-negative fraction were regarded as apoptotic cells.
# caspase-3 = test: Western blot, cleaved caspase-3 in HepG2; format: cell-based, human; conditions: HepG2, 3, 6, 12, and 24 μg/mL, 72 h
# Protocol: as §2
# [5] = tested on: hepatocellular carcinoma HepG2; conditions: earlier research; cited from earlier work
# [6] = tested on: human renal cell carcinoma GRC-1; conditions: earlier research; cited from earlier work
Compound,"Cytotoxicity IC50, SW480 (SW480 cells) [µg/mL]",IC50 at 72 h [1] [µg/mL],"Cytotoxicity IC50, HepG2 (HepG2 cells [2]) [µg/mL]","Cytotoxicity IC50, MCF-7 (MCF-7 cells) [µg/mL]","Cytotoxicity IC50, U87 (U87 cells) [µg/mL]",nuclear morphology (Hoechst33342) (HepG2 cells [3]),cleaved PARP expression (PARP),cleaved caspase-9 expression (caspase-9),"Q4 (lower right, early apoptotic cells), representative dot plot (HepG2 cells [4]; HepG2, 6 μg/ml) [%]","Q4 (lower right, early apoptotic cells), representative dot plot (HepG2 cells [4]; HepG2, 12 μg/ml) [%]",cleaved caspase-3 expression (caspase-3),other results
"CC(C)C[C@@H]1NC(=O)[C@H](CC(C)C)N(C)C(=O)[C@H](CC(C)C)NC(=O)[C@H](CC(C)C)N(C)C(=O)[C@H](Cc2ccccc2)NC1=O [Compound A1, Cyclo(Phe-N-Me-Leu-Leu-N-Me-Leu-Leu)]",12.37 ± 1.01,> 40,4.11 ± 0.16,9.40 ± 0.43,>40,–,–,–,–,–,–,–
"CC(C)C[C@@H]1NC(=O)[C@H](CC(C)C)N(C)C(=O)[C@H](CC(C)C)NC(=O)[C@H](CC(C)C)N(C)C(=O)[C@@H](Cc2ccccc2)NC1=O [Compound A2, Cyclo(D-Phe-N-Me-Leu-Leu-N-Me-Leu-D-Leu)]",5.75 ± 0.19,> 40,4.56 ± 0.20,9.64 ± 0.35,>40,–,–,–,–,–,–,–
"CC(C)C[C@@H]1NC(=O)[C@@H](CC(C)C)N(C)C(=O)[C@H](CC(C)C)NC(=O)[C@@H](Cc2ccccc2)N(C)C(=O)[C@H](CC(C)C)NC1=O [Compound A3, Cyclo(Me-D-Leu-Leu-Leu-Me-D-Phe-Leu)]",10.20 ± 0.15,> 40,5.58 ± 0.11,7.23 ± 0.27,20.16 ± 0.30,–,–,–,–,–,–,–
"CC(C)C[C@@H]1NC(=O)[C@@H](CC(C)C)N(C)C(=O)[C@H](CC(C)C)NC(=O)[C@@H](Cc2ccccc2)N(C)C(=O)[C@@H](CC(C)C)NC1=O [Compound A4, Cyclo(Me-D-Leu-Leu-D-Leu-Me-D-Phe-Leu)]",8.60 ± 0.08,> 40,6.27 ± 0.13,6.56 ± 0.18,2.82 ± 0.10,–,–,–,–,–,–,–
"CC(C)C[C@@H]1NC(=O)[C@@H](CC(C)C)NC(=O)[C@@H](CC(C)C)N(C)C(=O)[C@@H](CC(C)C)NC(=O)[C@@H](Cc2ccccc2)N(C)C1=O [Compound A5, Cyclo(Leu-D-N-Me-Phe-D-Leu-D-N-Me-Leu-D-Leu)]",5.10 ± 0.12,10.6 ± 0.6,1.46 ± 0.09,4.18 ± 0.15,1.85 ± 0.11,chromatin condensation at the edges of the nuclear membrane and nuclear fragmentation,significantly increased,significantly increased,19.9,22.4,significantly increased,"fold more active than galaxamide, SW480 (SW480 cells; ratio of IC50 values): 8.59 fold; fold more active than galaxamide, HepG2 (HepG2 cells [2]; ratio of IC50 values): 3.17 fold; fold more active than galaxamide, MCF-7 (MCF-7 cells; ratio of IC50 values): 3.37 fold; fold more active than galaxamide, U87 (U87 cells; ratio of IC50 values): 5.73 fold; percentage of early apoptotic cells (HepG2 cells [4]; HepG2, 3 μg/mL): 6.6% ± 1.7%; Q4 (lower right, early apoptotic cells), representative dot plot (HepG2 cells [4]; HepG2, 3 μg/ml): 6.6%; percentage of early apoptotic cells (HepG2 cells [4]; HepG2, 12 μg/mL): 22.4% ± 2.4%"
Galaxamide,–,–,–,–,–,chromatin condensation at the edges of the nuclear membrane and nuclear fragmentation,significantly increased,significantly increased,2.1,13.4,significantly increased,"antitumor activity against HepG2 [5]: significant antitumor activity; antitumor activity against GRC-1 [6]: significant antitumor activity; percentage of early apoptotic cells (HepG2 cells [4]; HepG2, 6 μg/mL): 2.3% ± 0.3%; percentage of early apoptotic cells (HepG2 cells [4]; HepG2, 24 μg/mL): 18.8% ± 1.9%; Q4 (lower right, early apoptotic cells), representative dot plot (HepG2 cells [4]; HepG2, 24 μg/ml): 18.8%"
